# According to patent US10667478B1, “Metribuzin tolerance alleles in soybean” (Syngenta Participations AG, priority 2017, dated 2020):
# Test system: Soybean
# Test: Metribuzin phytotoxicity screen of soybean lines in greenhouse pots
# Assay type: in vivo, Glycine max
# Conditions: applied after planting, scored 16 days later
# Excerpt: In the case of a visual metribuzin sensitivity detection system, a plant is rated for the percent of visual toxicity compared to a control plant which is sensitive to metribuzin.
# Soybean seeds were planted two seeds per pot in two inch pots with clay loam soil (1.36 o.m.). Six replications were arranged in a Randomized Complete Block Design in a greenhouse. Metribuzin was applied at 560 grams active ingredient per hectare after planting. Sixteen days later plants were scored for visual phytotoxicity scored as percent injury.
structure (smiles),measurement,setting,value
"CSc1nnc(C(C)(C)C)c(=O)n1N [Metribuzin, metribuzin]",Injury (%) @ 560 g ai/ha,soybean line A1036478,0%
same,Injury (%) @ 560 g ai/ha,soybean line AR1111926,20%
same,Injury (%) @ 560 g ai/ha,soybean line AR1112922,0%
same,Injury (%) @ 560 g ai/ha,soybean line AR1210100,15%
same,Injury (%) @ 560 g ai/ha,soybean line AR1210104,45%
same,Injury (%) @ 560 g ai/ha,soybean line AR1210856,9%
same,Injury (%) @ 560 g ai/ha,soybean line AR1210886,0%
same,Injury (%) @ 560 g ai/ha,soybean line AR1211262,0%
same,Injury (%) @ 560 g ai/ha,soybean line AR1211948,44%
same,Injury (%) @ 560 g ai/ha,soybean line BK1011572,23%
same,Injury (%) @ 560 g ai/ha,soybean line BK1211980,17%
same,Injury (%) @ 560 g ai/ha,soybean line BY1210428,54%
same,Injury (%) @ 560 g ai/ha,soybean line BY1211100,49%
same,Injury (%) @ 560 g ai/ha,soybean line BY1212083,0%
same,Injury (%) @ 560 g ai/ha,soybean line BY1212201,3%
same,Injury (%) @ 560 g ai/ha,soybean line BY1212223,0%
same,Injury (%) @ 560 g ai/ha,soybean line BY1213080,0%
same,Injury (%) @ 560 g ai/ha,soybean line CC1210319,0%
same,Injury (%) @ 560 g ai/ha,soybean line CC1211481,12%
same,Injury (%) @ 560 g ai/ha,soybean line CC1211818,0%
same,Injury (%) @ 560 g ai/ha,soybean line CC1212005,35%
same,Injury (%) @ 560 g ai/ha,soybean line CC1215412,0%
same,Injury (%) @ 560 g ai/ha,soybean line CC1215903,0%
same,Injury (%) @ 560 g ai/ha,soybean line CC1215927,45%
same,Injury (%) @ 560 g ai/ha,soybean line CC1217018,0%
same,Injury (%) @ 560 g ai/ha,soybean line CC1217019,0%
same,Injury (%) @ 560 g ai/ha,soybean line CE1210923,0%
same,Injury (%) @ 560 g ai/ha,soybean line CE1210997,0%
same,Injury (%) @ 560 g ai/ha,soybean line CE1211033,37%
same,Injury (%) @ 560 g ai/ha,soybean line CE1211109,0%
same,Injury (%) @ 560 g ai/ha,soybean line CE1211211,14%
same,Injury (%) @ 560 g ai/ha,soybean line CE1211264,28%
same,Injury (%) @ 560 g ai/ha,soybean line CE1211339,0%
same,Injury (%) @ 560 g ai/ha,soybean line CE1211377,0%
same,Injury (%) @ 560 g ai/ha,soybean line CE1211403,0%
same,Injury (%) @ 560 g ai/ha,soybean line CE1211693,0%
same,Injury (%) @ 560 g ai/ha,soybean line CE1212024,0%
same,Injury (%) @ 560 g ai/ha,soybean line CE1213779,38%
same,Injury (%) @ 560 g ai/ha,soybean line CE1214014,47%
same,Injury (%) @ 560 g ai/ha,soybean line CE1214443,0%
same,Injury (%) @ 560 g ai/ha,soybean line CE1214602,0%
same,Injury (%) @ 560 g ai/ha,soybean line CE1214610,47%
same,Injury (%) @ 560 g ai/ha,soybean line G01010146,0%
same,Injury (%) @ 560 g ai/ha,soybean line GO1110272,54%
same,Injury (%) @ 560 g ai/ha,soybean line GO1110602,53%
same,Injury (%) @ 560 g ai/ha,soybean line LL511,92%
same,Injury (%) @ 560 g ai/ha,soybean line LL513N,2%
same,Injury (%) @ 560 g ai/ha,soybean line LL563N,5%
same,Injury (%) @ 560 g ai/ha,soybean line LL595N,96%
same,Injury (%) @ 560 g ai/ha,soybean line NE0912640,0%
same,Injury (%) @ 560 g ai/ha,soybean line NE1212391,0%
same,Injury (%) @ 560 g ai/ha,soybean line NE1214412,5%
same,Injury (%) @ 560 g ai/ha,soybean line NE1214737,0%
same,Injury (%) @ 560 g ai/ha,soybean line NE1215099,0%
same,Injury (%) @ 560 g ai/ha,soybean line OW1011073,11%
same,Injury (%) @ 560 g ai/ha,soybean line OW1011829,50%
same,Injury (%) @ 560 g ai/ha,soybean line OW1012353,17%
same,Injury (%) @ 560 g ai/ha,soybean line OW1113014,34%
same,Injury (%) @ 560 g ai/ha,soybean line OW1210742,45%
same,Injury (%) @ 560 g ai/ha,soybean line OW1212626,25%
same,Injury (%) @ 560 g ai/ha,soybean line OW1213195,28%
same,Injury (%) @ 560 g ai/ha,soybean line OW1213207,28%
same,Injury (%) @ 560 g ai/ha,soybean line OW1213282,23%
same,Injury (%) @ 560 g ai/ha,soybean line OW1213323,42%
same,Injury (%) @ 560 g ai/ha,soybean line S77-T7,23%
same,Injury (%) @ 560 g ai/ha,soybean line S78-G6,10%
same,Injury (%) @ 560 g ai/ha,soybean line SJ1114205,0%
same,Injury (%) @ 560 g ai/ha,soybean line SJ1210059,0%
same,Injury (%) @ 560 g ai/ha,soybean line SJ1210512,11%
same,Injury (%) @ 560 g ai/ha,soybean line SJ1210526,0%
same,Injury (%) @ 560 g ai/ha,soybean line SJ1210678,0%
same,Injury (%) @ 560 g ai/ha,soybean line SJ1210829,0%
same,Injury (%) @ 560 g ai/ha,soybean line SJ1210844,0%
same,Injury (%) @ 560 g ai/ha,soybean line SJ1210862,0%
same,Injury (%) @ 560 g ai/ha,soybean line SJ1210867,25%
same,Injury (%) @ 560 g ai/ha,soybean line SJ1211190,55%
same,Injury (%) @ 560 g ai/ha,soybean line SJ1212283,0%
same,Injury (%) @ 560 g ai/ha,soybean line SJ1213014,0%
same,Injury (%) @ 560 g ai/ha,soybean line SJ1213512,0%
same,Injury (%) @ 560 g ai/ha,soybean line SJ1213805,48%
same,Injury (%) @ 560 g ai/ha,soybean line WN1116259,0%
same,Injury (%) @ 560 g ai/ha,soybean line WN1118256,47%
same,Injury (%) @ 560 g ai/ha,soybean line WN1118297,0%
